Legend:
[1] = test system: IN/WHO strain house flies; assay: topical application test, percent kill after 24 hours, IN/WHO strain; format: in vivo, house fly (susceptible IN/WHO strain); conditions: HRS 1422 alone 0.125 μg/fly
Description: In Table IX, and in the tables following it, the doses of topically applied insecticides and of synergists unless otherwise noted are expressed as micrograms per fly (μg/fly).
The synergistic effect of O-(2-propynyl) oximes with mobam was determined from topical application tests on susceptible, female, IN/WHO strain house flies and from tests on resistant, female, Rutgers A strain house flies. The synergist and insecticide were dissolved in ACS Grade acetone in such quantities that a 1.0μ liter volume applied to the thorax of 3-to-5 day old CO2 -anesthetized female adult house flies contained the desired dosage. After being treated, the flies were confined, 10 to a plaster petri dish, with 3-5 dishes/treatment, and held for 24-hr. observation of mortality. Reconstituted skim milk on cotton dental wicks was provided during the holding period. The percent kills after 24 hours are shown in Table X for the IN/WHO strain and Table XI for the Rutgers A strain.
The synergistic effect of benzyl 2-propynyl ethers with mobam was determined from topical application tests on IN/WHO and Rutgers A strain houseflies, following the procedure of Example 5. The percent kills after 24 hours are shown in Table XIV for the IN/WHO strain and in Table XV for the Rutgers A strain.
The effects of varying the insecticide dose and the synergist-insecticide ratio are further illustrated, with synergist compounds II-D, II-E, II-F and Mobam insecticide, in Tables XVI, XVII and XVIII.
The synergistic effect on IN/WHO flies of synergist compound II-K with Dimetilan, pyrolan, Baygon and HRS 1422 is illustrated by the 24 hour percent mortality data in Tables XIX, XX and XXI.
The effect on IN/WHO flies of synergist compound IV-C, identified in Table IV, with mobam was determined by the topical application procedure of Example 5.
The synergistic effect with Diazinon of compounds I-B, I-D, I-F, I-G, I-H and I-I, identified in Tables I and Ia, was determined from topical application tests on IN/WHO strain houseflies and on Rutgers A strain houseflies by the procedure of Example 5. The percent kills after 24 hours are shown in Table XXV for the IN/WHO strain and Table XXVI for the Rutgers A strain.
The synergistic effect with GS 13005 of compounds I-A, I-B, I-D, I-E, I-F, I-G and I-I was determined from topical application tests to IN/WHO strain, Rutgers A strain and polyvalent CH strain houseflies using the procedures of Example 5. The percent kills of the IN/WHO strain flies after 24 hours are shown in Table XXVIII; of the Rutgers A strain, in Table XXIX; and of the polyvalent CH strain, in Table XXX. The doses of insecticide alone to the CH strain files caused 10-40% mortality.
The synergistic effect with Diazinon and GS 13005 of various of the benzyl 2-propynyl ethers identified in Tables II and IIa was determined by topical application tests on IN/WHO strain, and Rutgers A strain and polyvalent, resistant, CH strain houseflies using the procedures of Example 5. The percent kills after 24 hours of IN/WHO strain flies are shown in Table XXXI; of Rutgers A strain flies, in Table XXXII; and of CH strain flies, in Table XXXIII. The doses of insecticide alone to the CH strain flies caused 10-40% mortality.
The synergist effect on IN/WHO flies of synergist compound II-K with Gardona and Bidrin is illustrated by the 24 hour percent mortality data in Tables XXXIV and XXXV.
The synergistic effect on IN/WHO strain flies and Rutgers A strain flies of compound IV-C with GS 13005 and with Diazinon was determined by the topical application procedure of Example 5. The percent kills of IN/WHO strain flies after 24 hours are shown in Tables XXXVI and XXXVII; the percent kills of Rutgers A strain flies are shown in Tables XXXVIII and XXXIX.

[2] = test system: Wilson strain house flies; format: in vivo, house fly (susceptible Wilson strain); conditions: for Contact Synergistic Ratio, Carbaryl (LC50 insecticide alone / LC50 with synergist): in vivo; for Contact Synergistic Ratio, Pyrolan (LC50 insecticide alone / LC50 with synergist): synergist to insecticide 5:1 by weight, 24 h
Description: The required solutions of the insecticide and of the synergist compound were prepared in acetone at a concentration of one milligram per milliliter. One-pint wide mouth glass jars were coated wiith the appropriate insecticide-synergist combination by rolling the jars containing aliquots of the appropriate solutions diluted to three milliliters with acetone to deposit, by evaporation, a film of the test materials. The flies were transferred under carbon dioxide anesthesia and held in the jar at room temperature. Perforated aluminum foil was used to cover the jars and to hold cotton saturated with 10% sugar solution. Counts were made at intervals, but the recorded mortality was based on 24-hour kill, rather than knockdown. All prostrate nonmoving flies were considered dead. A determination was then made of the contact synergistic ratio [SR], which is the ratio of the LC50 of insecticide alone to the LC50 of the insecticide when applied together with the synergist. The LC50 of the insecticide was estimated from a log-probit plot of percent kill versus dosage. […] The LC50 of the combination of insecticide and synergist was determined at a synergist to insecticide parts by weight ratio of five to one.

mice [3] = assay: extension of Secobarbital sleeping time by synergists; format: in vivo, Swiss albino white male mice; conditions: Secobarbital 37 mg/K; for Relative Sleeping Time: treated/control
Description: (§1) The selectivity of the synergist compounds of this invention is illustrated by the results of sleeping-time extension tests and of acute toxicity tests on Swiss albino white male mice.
(§2) The effect of various synergist compounds on sleeping time of sodium secobarbital [Secobarbital] and of 3,3-diethyl-5-methyl-2,4-dioxypiperidine [Noludar] was determined by administering the drug, with and without synergist, to approximately 38-day old male mice weighing from 25 to 30 grams. Synergists were administered in each of two doses, 74.0 mg/kg (dilution being 2.0 mg/0.1 ml corn oil), and 110.0 mg/kg (dilution 3.0 mg/0.1 ml oil). Secobarbital was administered at a dose of 37.0 mg/kg (dilution 1.0 mg/0.1 ml water). Noludar was administered at a dose of 110.0 mg/kg (dilution 3.0 mg/0.1 ml water). The synergist was administered one hour prior to administration of the Secobarbital or Noludar. Secobarbital and Noludar sleeping times were obtained for both the control (drug only) and the treated (synergist plus drug) mice by noting the time lapse between the administration of the drug and the recovery of the righting reflex, i.e. when the animal regains conciousness and can walk up an inclined wooden tray with coordination. The relative sleeping time (R.S.) was noted. The R.S. is the extended sleeping time in the treated mice (synergist plus drug) divided by the sleeping time in the control mice (drug only). The mean sleeping time for the treated mice and the R.S. are shown on Table XXXXIV for various synergist compounds.

mice [4] = assay: extension of Noludar sleeping time by synergists; format: in vivo, Swiss albino white male mice; conditions: Noludar 110 mg/K, synergist 110 mg/K; for Relative Sleeping Time: treated/control
Description: as §1, §2

mice [5] = assay: synergism of acute toxicity of Dimetilan, GS 13005, Secobarbital and Methadone (intraperitoneal); format: in vivo, Swiss albino white male mice; conditions: for number of mice dead: 48 hours, of eight mice
Description: The synergism of the acute toxicity of Dimetilan by various synergists was determined by tests on Swiss albino, white male mice aged 5 to 6 weeks and weighing 23 to 27 grams. The synergists and insecticides were dissolved in corn oil and the drugs were dissolved in distilled water. All compounds were administered intraperitoneally by injection in the lower quadrent of the abdomen. The synergist was administered in 0.1 ml of corn oil 1 hour prior to administration of the insecticide. Eight mice were treated, per dosage, with each synergist. The mice were watched for a minimum of 6 hours while held in a glass jar with bedding individually after intraperitoneal injection of the test solutions. Lethality was noted, the animals were weighed and transferred in cages, and food and water were supplied. Control mice were given 0.1 ml of corn oil at the time of administration of the synergist to the test mice and 0.1 ml corn oil plus Dimetilan at the time of administration of the insecticide to the test mice.
By the same procedure, the synergism of acute toxicity of GS 13005, Secobarbital and 6-dimethylamino-4,4-diphenyl-3-heptanone [Methadone] was determined.

[6] = Dimetilan 8 mg/kg + synergist 240 mg/kg ip
[7] = Dimetilan 8 mg/kg + synergist 80 mg/kg ip

| SMILES | Contact Synergistic Ratio, Carbaryl (LC50 insecticide alone / LC50 with synergist) [2] | Contact Synergistic Ratio, Pyrolan (LC50 insecticide alone / LC50 with synergist) [2] | Mean Sleeping Time (mice [3]; synergist 74 mg/K) | Relative Sleeping Time (mice [3]; synergist 74 mg/K) | Mean Sleeping Time (mice [3]; synergist 110 mg/K) | Relative Sleeping Time (mice [3]; synergist 110 mg/K) | Mean Sleeping Time (mice [4]) | Relative Sleeping Time (mice [4]) | number of mice dead (mice [5]; [6]) | number of mice dead (mice [5]; [7]) | further results |
| --- | --- | --- | --- | --- | --- | --- | --- | --- | --- | --- | --- |
| CNC(=O)Oc1cc(C(C)C)cc(C(C)C)c1 [HRS 1422, 3,5-di-isopropylphenyl methylcarbamate, reference compound] | – | – | – | – | – | – | – | – | – | – | 24 hour percent mortality [1]: 0% |
| C#CCON=Cc1ccc(N(C)C)cc1 [I-C] | 200 | 20 | 30 min | 1.1 | 108 min | 1.8 | 34 min | 1.0 | 0 | – | – |
| C#CCOCc1ccc(Cl)cc1 [II-A] | 50 | 7 | – | – | – | – | – | – | – | – | – |
| C#CCOCc1ccc(Cl)cc1Cl [II-B] | 50 | 15 | – | – | – | – | – | – | – | – | – |
| C#CCOCc1ccc2c(c1)OCO2 [II-G] | 100 | 15 | – | – | – | – | – | – | – | – | – |
| C#CCOCc1cccc(Cl)c1[N+](=O)[O-] [II-I] | – | – | 31 min | 1.2 | 32 min | 1.3 | 56 min | 1.8 | 3 | 0 | – |
| C#CCOCc1ccc(Cl)cc1[N+](=O)[O-] [II-J] | – | – | 27 min | 1.0 | 30 min | 1.4 | 70 min | 2.2 | 4 | 0 | mice lethality (number dead) (mice [5]; GS 13005 71 mg/kg + synergist 213 mg/kg): 6; mice lethality (number dead) (mice [5]; Methadone 32 mg/kg + synergist 215 mg/kg): 3; mice lethality (number dead) (mice [5]; Secobarbital 90 mg/kg + synergist 215 mg/kg): 0 |
| C#CCOCc1cccc([N+](=O)[O-])c1Cl [II-L] | – | – | 31 min | 1.0 | 42 min | 1.8 | 56 min | 1.8 | 5 | 0 | – |
| C#CCOCc1ccc(Cl)c([N+](=O)[O-])c1 [II-M] | – | – | 29 min | 1.0 | 47 min | 2 | 47 min | 2.1 | 3 | 0 | – |
| C#CCOCc1ccc([N+](=O)[O-])cc1Cl [II-N] | – | – | 20 min | 1.0 | 39 min | 1.7 | 58 min | 1.9 | 4 | 0 | – |
| C#CCOCc1ccc([N+](=O)[O-])c(Cl)c1 [II-O] | – | – | – | – | 26 min | 1.1 | 52 min | 2.4 | 2 | 0 | – |
| C#CCn1ncc2cc([N+](=O)[O-])ccc21 [III-A] | 143 | 30 | – | – | 50 min | 1.1 | 32 min | 1.0 | 0 | – | – |
| C#CCn1nc(Cl)c2ccccc21 [III-B] | 117 | 30 | – | – | 6 min | 1.3 | 46 min | 1.0 | 0 | – | – |
| C#CCn1nc(Cl)c2ccc([N+](=O)[O-])cc21 [III-C, N-(2-propynyl)-3-chloro-6-nitroindazole] | 53 | 10 | – | – | – | – | – | – | – | – | – |
| C#CCOC(c1cccc2ccccc12)C(C)[N+](=O)[O-] (stereo not shown) [IV-B, 2-propynyl 1-naphthyl-2-nitropropyl ether] | 50 | 10 | – | – | – | – | – | – | – | – | – |
| CCC(=O)C(CC(C)N(C)C)(c1ccccc1)c1ccccc1 (stereo not shown) [Methadone, 6-dimethylamino-4,4-diphenyl-3-heptanone, reference compound] | – | – | – | – | – | – | – | – | – | – | mice lethality (number dead) (mice [5]; control: Methadone 32 mg/kg in 0.1 ml corn oil): 2 |
| C=CCC1(C(C)CCC)C(=O)NC(=O)NC1=O (stereo not shown) [Secobarbital, sodium secobarbital, reference compound] | – | – | – | – | – | – | – | – | – | – | mice lethality (number dead) (mice [5]; control: Secobarbital 90 mg/kg in 0.1 ml corn oil): 0 |

Reference: patent US4020111A, “Propynyloxy alkyl arene insecticides” (priority 1975, dated 1977)
